Data: paper PMC8151848, “Tambjamines and Prodiginines: Biocidal Activity against Trypanosoma cruzi” (Pharmaceutics, 2021)
Entries after “also recorded” stand apart in the source; their conditions may differ. Like-named read-outs stand apart in the source and are kept apart here.

Experiments:
[1] = Cytotoxicity assay (resazurin) in Hep G2 cells; assay type: cell-based, human; conditions: human, n = 9; for cytotoxicity at 24 h, 10 µM: Hep G2, 10 µM, read-out: Cytotoxicity (% cell growth inhibition) at 10 µM ± SD; for cytotoxicity at 24 h, 100 µM: Hep G2, 100 µM, read-out: Cytotoxicity (% cell growth inhibition) at 100 µM ± SD; for cytotoxicity at 24 h, 1 µM: Hep G2, 1 µM, read-out: Cytotoxicity (% cell growth inhibition) at 1 µM ± SD
Excerpt: Mouse L-929 fibroblasts (NCTC clone 929, ECACC 88102702) were used for both drug toxicity and infection assays. Cell line was obtained from Dr. Concepció Soler, Dept. Pathology & Experimental therapeutics, Faculty of Medicine and Health Sciences, University of Barcelona, Spain. Human hepatocarcinoma Hep G2 cells (American Type Culture Collection (ATCC HB-8065)) were employed only in the drug toxicity assays and were obtained from Dr. Neus Agell, Cell Biology Research Group, Faculty of Medicine and Health Sciences, University of Barcelona, Spain.
Cells were seeded by trypsinization in 96-well microplates (L-929: 4 × 10^3 cells/well; Hep G2: 1.5 × 10^4 cells/well) and incubated for 24 h at 37 °C to allow cell attachment. On the following day, the medium was discarded and replaced with a fresh medium containing the different concentrations of the drugs. […] Medium, growth, and drug blanks were used in each test as controls. Plates were incubated again for another 24 h. After treatment, 20 µL of resazurin diluted in 1X phosphate-buffered saline (PBS; Sigma Aldrich) was added at a final concentration of 70 µM. The plates were incubated for another 24 h, after which fluorescence was measured in a microplate reader (FLUOstar OPTIMA, BMG LABTECH GmbH, Ortenberg, Germany) at an excitation wavelength of 530 nm and an emission wavelength of 590 nm. Each concentration was tested in triplicate and the experiments were repeated three times independently. Results indicated the percentage of toxicity (% T value). (3) % Toxicity=100−(AE−AEB)/(AC−ACB)×100 where AE is the absorbance of the experimental group, AEB the absorbance of the drug blank, AC the absorbance of the untreated cells, and ACB the absorbance of the culture medium blank. […]

[2] = system: intact epimastigotes of T. cruzi; experiment: Oxygen consumption inhibition analysis (high-resolution respirometry); assay type: cell-based, Trypanosoma cruzi; conditions: for % Oxygen Uptake Inhibition (¾ IC50): compound at ¾ IC50; for effect on respiratory inhibition (in words): ½ and ¾ IC50
Procedure: Intact epimastigotes were collected by centrifugation, washed twice in PBS, and resuspended with respiration buffer containing 125 mM sucrose, 65 mM KCL, 10 mM Tris-HCl (pH 7.2), 1 mM […], and 2.5 mM K2PO4. They were then added to a final concentration of 25 × 10^6 cells/mL.
To evaluate the effect of the different drugs on mitochondrial function, we measured mitochondrial respiration in the cells before and after the addition of increasing volumes of the compounds. Each compound was added in titrations until reaching concentrations of ½ and ¾ IC50. Finally, antimycin A (AA) was added to determine the residual oxygen consumption (ROX) through the inhibition of complex III of the electron transport chain. The ROX value was subtracted from the O2 flux as a baseline for all the respiratory states.
Mitochondrial respiration was measured by high-resolution respirometry (OROBOROS Oxygraph-2k; OROBOROS Instruments, Innsbruck, Austria). Data were analyzed by using the Software DatLab Online Data Acquisition and Analysis (OROBOROS Instruments, Innsbruck, Austria). All respirometry assays were performed at a constant temperature of 28 °C, with the volume of each chamber being 2 mL. The oxygen flux values are expressed relative to the cell concentration per second (pmol/sec/10^6 cells). The effect of each compound on mitochondrial function is shown as the percentage of inhibition of oxygen flux.

Entamoeba = system: Entamoeba; design: method as in PMID 32196500; conditions: read-out: IC50 against Entamoeba; cited from earlier work
Giardia = system: Giardia; design: method as in PMID 32196500; conditions: read-out: IC50 against Giardia; cited from earlier work
Trypanosoma brucei = system: Trypanosoma brucei; design: method as in PMID 32196500; conditions: read-out: IC50 against Trypanosoma brucei; cited from earlier work
[3] = POPC vesicles, external nitrate; ref 1 (Hernando et al., Sci. Rep., 2018); read-out: EC50 (µM) NO3–/Cl–; cited from earlier work
[4] = system: epimastigotes of T. cruzi (CL strain, clone B5); design: method as in PMID 31210760; conditions: read-out: IC50 against epimastigotes of T. cruzi (earlier study); cited from earlier work
[5] = Hep G2 hepatocarcinoma cells (ATCC HB-8065)

Compound	cytotoxicity at 24 h, 10 µM [1]	cytotoxicity at 24 h, 100 µM [1]	% Oxygen Uptake Inhibition (½ IC50) ([2]; compound at ½ IC50)	Oxygen Uptake (pmol/sec/Million Cells) ([2]; compound at ½ IC50, n = 4)	% Oxygen Uptake Inhibition (¾ IC50) [2]	Oxygen Uptake (pmol/sec/Million Cells) ([2]; compound at ¾ IC50, n = 4)	% Oxygen Uptake Inhibition (½ IC50) ([2]; compound at ½ IC50, listed as natural prodigiosin)	cytotoxicity at 24 h, 1 µM [1, 5]	cytotoxicity at 24 h, 10 µM [1, 5]	cytotoxicity at 24 h, 100 µM [1, 5]	effect on respiratory inhibition (in words) [2]	IC50 (Entamoeba)	IC50 (Giardia)	IC50 (Trypanosoma brucei)	EC50 [3]	IC50 [4]
CCCCCC1=C/C(=C/c2[nH]c(-c3ccc[nH]3)cc2OC)N=C1C [Synthetic prodigiosin, prodigiosin]	90.5 ± 0.82%	95.2 ± 0.94%	13.58%	2.33 ± 0.09 pmol/sec/Million Cells	35.18%	1.74 ± 0.17 pmol/sec/Million Cells	–	–	–	–	–	–	–	–	–	–
CCCCCC1=C/C(=C/c2[nH]c(-c3ccc[nH]3)cc2OC)N=C1C [Natural prodigiosin, prodigiosin]	–	–	72.8%	0.73 ± 0.06 pmol/sec/Million Cells	–	–	73%	–	–	–	–	–	–	–	–	–
COC1=CC(c2cc3ccccc3[nH]2)=N/C1=C\c1[nH]c(C)cc1C [Obatoclax, reference compound]	–	–	0%	2.69 ± 0 pmol/sec/Million Cells	0%	2.69 ± 0 pmol/sec/Million Cells	–	10.4 ± 4.8%	63.3 ± 16.9%	74.8 ± 4.06%	little or no effect	0.5 µM	0.9 µM	0.04 µM	–	–
CCc1c(-c2ccc[nH]2)[nH]c(/C=N/C2CCCCC2)c1C [MM3]	–	–	41.26%	1.58 ± 0.05 pmol/sec/Million Cells	42%	1.56 ± 0.06 pmol/sec/Million Cells	–	0.99 ± 0.92%	24.9 ± 8.92%	94.36 ± 0.5%	–	–	–	–	0.035 µM	–
O=C(Cn1ccnc1[N+](=O)[O-])NCc1ccccc1 [Benznidazole, reference compound]	–	–	–	–	–	–	–	0%	0.44 ± 0.61%	0.18 ± 0.08%	–	–	–	–	–	18 µM
CCc1c(-c2ccc[nH]2)[nH]c(/C=N/c2ccc(C(C)(C)C)cc2)c1C [MM4]	–	–	2.60%	2.62 ± 0.04 pmol/sec/Million Cells	2.97%	2.61 ± 0.04 pmol/sec/Million Cells	–	0%	19.1 ± 3.94%	85.2 ± 9.91%	little or no effect; also recorded: no inhibitory effect	–	–	–	–	–
